Experimental data reported in patent US8143252B2, “Tetrahalogenated compounds useful as inhibitors of angiogenesis” (The United States of America as represented by the …, priority 2006, dated 2012).
Like-named read-outs stand apart in the source and are kept apart here. Marks after values point to notes of the source that are not given here.

Legend:
[1] = system: rat aortic ring microvessel outgrowth; experiment: rat aortic ring microvessel assay; format: cell-based; details: for activity at 50 µM: Rattus norvegicus, 96 h, read-out: Average of Growth [%]
Protocol: The anti-angiogenic activity of the compounds was tested following the procedure described in Lepper, E. R., Ng, S. S., Gutschow, M., Weiss, M., Hauschildt, S., Hecker, T. K., Luzzio, F. A., Eger, K., Figg, W. D., J. Med. Chem. 2004, Comparative molecular field analysis and comparative molecular similarity indices analysis of thalidomide analogues as angiogenesis inhibitors; 47(9):2219-27. Twelve-well tissue culture-grade plates were covered with 250 μL Matrigel and allowed to gel for 30 to 45 minutes at 37° C., 5% CO2. Thoracic aortas were excised from 6- to 8-week-old male Sprague-Dawley rats, and the fibroadipose tissue was removed. The aortas were cut into 1 mm-long cross-sections and placed on the Matrigel coated wells. They were then covered with an additional 250 μL Matrigel and allowed to gel for 30 to 45 minutes at 37° C., 5% CO2. The rings were cultured for 24 hours in 1 mL EBM-2. After 24 hours, the medium was removed and replaced with 1 mL EBM-2 (Clonetics Corp.), supplemented with fetal bovine serum (2%), ascorbic acid, hydrocortisone, heparin, and amphotericin. Each selected compound was dissolved in DMSO and added to the EBM-2, before it was added to the well. Each selected compound was administered daily for four days at a daily dosage of 50 μM. Photos were taken on Day 5. DMSO alone was used as a control baseline. Carboxyamidotriazole (“CAI” from NCI, Bethesda, Md.) was used as a positive control. The vascular outgrowth was quantified using Adobe Photoshop (Adobe Systems, Inc., San Jose, Calif.) and the results are provided below in Tables 1 and 2.

[2] = system: Human prostate cancer cell lines (PC3s); experiment: PC3 Proliferation Assay (hemocytometer count, trypan blue); format: cell-based; details: 24 hours, cell count normalized to DMSO control, concentration not given
Protocol: (§1) Human umbilical vein endothelial cells (HUVECs (Clonetics)) were maintained in EGM-II, supplemented with a Bullet-Kit (Clonetics). Human prostate cancer cell lines (PC3s (ATCC)) were maintained in RPMI-1640, supplemented with 10% fetal bovine serum. Both cell lines were incubated at 37° C., in a 5% CO2 atmosphere. Cells were seeded onto 12-well plates at a density of 30,000 cells/well and allowed to attach overnight at 37° C. and 5% CO2. The culture medium was then aspirated, and fresh culture medium containing either the vehicle (0.5% DMSO) or drug solution in 0.5% DMSO was added. After 24 hours, media was removed, then cells were trypsinized and counted with a hemocytometer, using trypan blue to exclude non-viable cells. Each compound was tested in triplicate and the cell count was normalized to the controls, to give the % growth. The results are shown below in Tables 3 and 4, and in FIGS. 5 and 6.

[3] = system: HUVEC; experiment: HUVEC Proliferation Assay, CCK-8 counting; format: cell-based, human; details: 24 h incubation
Protocol: as §1
(§2) The experiments for the data in Table 5 was performed as described above, except that the Table 5 experiments were performed in […] (at two concentrations), and the CCK-8 Cell Counting Kit (Dajindo Technologies) was utilized after treating for 24 hours.

[4] = system: PC3; experiment: PC3 Proliferation Assay, CCK-8 counting; format: cell-based, human; details: 24 h incubation
Protocol: as §1, §2

[5] = system: Human umbilical vein endothelial cells (HUVECs); experiment: HUVEC Proliferation Assay (hemocytometer count, trypan blue); format: cell-based; details: 24 hours, cell count normalized to DMSO control, concentration not given
Protocol: as §1

[6] = system: rat aortic ring microvessel outgrowth; details: 50 μM; data reported in Lepper et al., J. Med. Chem. 2004; cited from earlier work

In the case of `CN1C(=O)NC(=O)C(C)(N2C(=O)c3c(F)c(F)c(F)c(F)c3C2=O)C1=O` (racemic) [Compound 19a, 1,5-Dimethyl-5-(4,5,6,7-tetrafluoro-1,3-dihydro-1,3-dioxo-2H-isoindol-2-yl)-2,4,6-(1H,3H,5H)-pyrimidinetrione], the activity at 50 µM [1] is reported as 0.12%.
For `CCCN1C(=O)NC(=O)C(C)(N2C(=O)c3c(F)c(F)c(F)c(F)c3C2=O)C1=O` (racemic) [Compound 19b, 5-Methyl-1-propyl-5-(4,5,6,7-tetrafluoro-1,3-dihydro-1,3-dioxo-2H-isoindol-2-yl)-2,4,6(1H,3H,5H)-pyrimidinetrione], the activity at 50 µM [1] was 0.13% and the “Average of Growth [%]” value [2] was 1.50%.
In the case of `CC(C)N1C(=O)NC(=O)C(C)(N2C(=O)c3c(F)c(F)c(F)c(F)c3C2=O)C1=O` (racemic) [Compound 19c, 1-Isopropyl-5-methyl-5-(4,5,6,7-tetrafluoro-1,3-dihydro-1,3-dioxo-2H-isoindol-2-yl)-2,4,6(1H,3H,5H)-pyrimidinetrione], the activity at 50 µM [1] is reported as 0.14% and the “Average of Growth [%]” value [2] is reported as 3.75%.
Work on `CCN1C(=O)NC(=O)C(CC)(N2C(=O)c3c(F)c(F)c(F)c(F)c3C2=O)C1=O` (racemic) [Compound 19d, 1,5-Diethyl-5-(4,5,6,7-tetrafluoro-1,3-dihydro-1,3-dioxo-2H-isoindol-2-yl)-2,4,6-(1H,3H,5H)-pyrimidinetrione] yielded an activity at 50 µM [1] of 0.13%.
With `CCCN1C(=O)NC(=O)C(CC)(N2C(=O)c3c(F)c(F)c(F)c(F)c3C2=O)C1=O` (racemic) [Compound 19e, 5-Ethyl-1-propyl-5-(4,5,6,7-tetrafluoro-1,3-dihydro-1,3-dioxo-2H-isoindol-2-yl)-2,4,6(1H,3H,5H)-pyrimidinetrione] the activity at 50 µM [1] was 0.12%, the “HUVEC Growth (5 uM) (Control = 100%) Mean” value [3] was 1.68% and the “HUVEC Growth (10 uM) (Control = 100%) Mean” value [3] was 2.14%. The “PC3 Growth (5 uM) (Control = 100%) Mean” value [4] was 31.02% and the “PC3 Growth (10 uM) (Control = 100%) Mean” value [4] was 9.67%.
With `CCN1C(=O)NC(=O)C(C)(N2C(=O)c3c(F)c(F)c(F)c(F)c3C2=O)C1=O` (racemic) [Compound 19f, 1-Ethyl-5-methyl-5-(4,5,6,7-tetrafluoro-1,3-dihydro-1,3-dioxo-2H-isoindol-2-yl)-2,4,6(1H,3H,5H)-pyrimidinetrione] the activity at 50 µM [1] was 23.8%, the “HUVEC Growth (5 uM) (Control = 100%) Mean” value [3] was 27.17% and the “HUVEC Growth (10 uM) (Control = 100%) Mean” value [3] was 9.00%. The “PC3 Growth (5 uM) (Control = 100%) Mean” value [4] was 25.95% and the “PC3 Growth (10 uM) (Control = 100%) Mean” value [4] was 10.94%.
In the case of `CCC1(N2C(=O)c3c(F)c(F)c(F)c(F)c3C2=O)C(=O)NC(=O)N(C(C)C)C1=O` (racemic) [Compound 19g, 5-Ethyl-1-isopropyl-5-(4,5,6,7-tetrafluoro-1,3-dihydro-1,3-dioxo-2H-isoindol-2-yl)-2,4,6(1H,3H,5H)-pyrimidinetrione], the activity at 50 µM [1] is reported as 0.13% and the “Average of Growth [%]” value [2] is reported as 1.50%.
For `CC1(N2C(=O)c3c(F)c(F)c(F)c(F)c3C2=O)C(=O)NC(=O)N(C2CCCCC2)C1=O` (racemic) [Compound 19h, 1-Cyclohexyl-5-methyl-5-(4,5,6,7-tetrafluoro-1,3-dihydro-1,3-dioxo-2H-isoindol-2-yl)-2,4,6(1H,3H,5H)-pyrimidinetrione], the activity at 50 µM [1] was 11.8%.
`CCC1(N2C(=O)c3c(F)c(F)c(F)c(F)c3C2=O)C(=O)NC(=O)N(C2CCCCC2)C1=O` (racemic) [Compound 19i, 1-Cyclohexyl-5-ethyl-5-(4,5,6,7-tetrafluoro-1,3-dihydro-1,3-dioxo-2H-isoindol-2-yl)-2,4,6(1H,3H,5H)-pyrimidinetrione] showed an activity at 50 µM [1] of 11.2%.
`CN1C(=O)NC(=O)C(C)(NC(=O)c2cc(F)c(F)c(F)c2F)C1=O` (racemic) [Compound 20a, N-(Hexahydro-1,5-dimethyl-2,4,6-trioxo-5-pyrimidinyl)-2,3,4,5-tetrafluorobenzamide] gave an activity at 50 µM [1] of 58.3%.
With `CCCN1C(=O)NC(=O)C(C)(NC(=O)c2cc(F)c(F)c(F)c2F)C1=O` (racemic) [Compound 20b, N-(Hexahydro-5-methyl-2,4,6-trioxo-1-propyl-5-pyrimidinyl)-2,3,4,5-tetrafluorobenzamide] the activity at 50 µM [1] was 23.1%.
Molecule `CC(C)N1C(=O)NC(=O)C(C)(NC(=O)c2cc(F)c(F)c(F)c2F)C1=O` (racemic) [Compound 20c, N-(Hexahydro-1-isopropyl-5-methyl-2,4,6-trioxo-5-pyrimidinyl)-2,3,4,5-tetrafluorobenzamide] has an activity at 50 µM [1] of 5.63%.
In the case of `CCN1C(=O)NC(=O)C(CC)(NC(=O)c2cc(F)c(F)c(F)c2F)C1=O` (racemic) [Compound 20d, N-(1,5-Diethyl-hexahydro-2,4,6-trioxo-5-pyrimidinyl)-2,3,4,5-tetrafluorobenzamide], the activity at 50 µM [1] is reported as 31.1%, the “HUVEC Growth (5 uM) (Control = 100%) Mean” value [3] is reported as 11.46% and the “HUVEC Growth (10 uM) (Control = 100%) Mean” value [3] is reported as 14.53%. The “PC3 Growth (10 uM) (Control = 100%) Mean” value [4] was 87.73%.
In the case of `CCCN1C(=O)NC(=O)C(CC)(NC(=O)c2cc(F)c(F)c(F)c2F)C1=O` (racemic) [Compound 20e, N-(5-Ethyl-hexahydro-2,4,6-trioxo-1-propyl-5-pyrimidinyl)-2,3,4,5-tetrafluorobenzamide], the activity at 50 µM [1] is reported as 0.19%, the “Average of Growth [%]” value [5] is reported as 24.05% and the “Average of Growth [%]” value [2] is reported as 26.27%.
With `CCN1C(=O)NC(=O)C(C)(NC(=O)c2cc(F)c(F)c(F)c2F)C1=O` (racemic) [Compound 20f, N-(1-Ethyl-hexahydro-5-methyl-2,4,6-trioxo-5-pyrimidinyl)-2,3,4,5-tetrafluorobenzamide] the activity at 50 µM [1] was 16.8%.
In the case of `CCC1(NC(=O)c2cc(F)c(F)c(F)c2F)C(=O)NC(=O)N(C(C)C)C1=O` (racemic) [Compound 20g, N-(5-Ethyl-hexahydro-1-isopropyl-2,4,6-trioxo-5-pyrimidinyl)-2,3,4,5-tetrafluorobenzamide], the activity at 50 µM [1] is reported as 0.1%, the “Average of Growth [%]” value [5] is reported as 62.03% and the “Average of Growth [%]” value [2] is reported as 38.46%.
In the case of `CC1(NC(=O)c2cc(F)c(F)c(F)c2F)C(=O)NC(=O)N(C2CCCCC2)C1=O` (racemic) [Compound 20h, N-(1-Cyclohexyl-hexahydro-5-methyl-2,4,6-trioxo-5-pyrimidinyl)-2,3,4,5-tetrafluorobenzamide], the activity at 50 µM [1] is reported as 16.5%, the “Average of Growth [%]” value [5] is reported as 91.14% and the “Average of Growth [%]” value [2] is reported as 34.52%.
`CCC1(NC(=O)c2cc(F)c(F)c(F)c2F)C(=O)NC(=O)N(C2CCCCC2)C1=O` (racemic) [Compound 20i, N-(1-Cyclohexyl-5-ethyl-hexahydro-2,4,6-trioxo-5-pyrimidinyl)-2,3,4,5-tetrafluorobenzamide] showed an activity at 50 µM [1] of 9.73%.
`CCC1(NC(=O)c2cc(F)c(F)c(F)c2F)C(=O)NC(=O)N(c2ccccc2)C1=O` (racemic) [Compound 20k, N-(5-Ethyl-hexahydro-2,4,6-trioxo-1-phenyl-5-pyrimidinyl)-2,3,4,5-tetrafluorobenzamide] gave an activity at 50 µM [1] of 18.1%.
With `NC(=O)c1nnn(Cc2cc(Cl)c(C(=O)c3ccc(Cl)cc3)c(Cl)c2)c1N` [CAI, Carboxyamidotriazole, reference compound] the activity at 50 µM ([1]; phthalimides 19, 50 μM daily for four days, DMSO control = 100) was 4.03% and the “Average of Growth [%]” value ([1]; tetrafluorobenzamides 20, 50 μM daily for four days, DMSO control = 100) was 4.03%.
For `CCC1(N2C(=O)c3c(F)c(F)c(F)c(F)c3C2=O)C(=O)NC(=O)N(c2ccccc2)C1=O` (stereo not drawn) [Compound 19k], the “Average of Growth [%]” value [6] is listed as 24.25^[a] %.
